The results in this text go back to patent US11192890B2, “FGFR kinase inhibitors and pharmaceutical uses” (AUCKLAND UNISERVICES LIMITED, priority 2017, dated 2021).

For one data set, the system named is H520 cells. Description: Oxic and anoxic anti-proliferative activity of the prodrugs. As to conditions: for Hypoxic Cytotoxicity Ratio (HCR), H520: ratio of oxic and anoxic IC50.
The next data set concerns SW780 cells. The description is as above. In kind it is cell-based. The conditions noted are these: Homo sapiens, SW780; oxic conditions; read-out: Cellular Anti-proliferative IC50, SW780, Oxic.
The next data set has as its system SUM52 cells. Described as above. As to conditions: for Hypoxic Cytotoxicity Ratio (HCR), SUM52: ratio of oxic and anoxic IC50.
In data set [1] the test system is SW780 (FGFR3-amplified bladder cancer) xenograft. Description: Anti-tumour activity, SW780 xenograft. In kind it is in vivo, NIH-III nude mice. As to conditions: 30 umol/kg, q3dx4, IP. As for the experimental part: Specific pathogen-free homozygous female NIH-III nude mice (Charles River Laboratories, Wilmington, Mass.) were inoculated subcutaneously with a single cell suspension of SW780 cells (8×10^6 cells/100 μL with Matrigel; right flank) or SNU-16 cells (10×10^6 cells/100 μL; right flank). When tumour xenografts were established (typically 7-14 days for SW780 and 21-28 days for SNU-16) mice were randomized to treatment groups. Test compounds of the present invention were prepared in Water for Injection (WFI). Mice were dosed by intraperitoneal injection (0.01-0.03 ml/g) using the stated schedules and dose levels. […] Tumour size and body weights were measured at regular intervals. Tumour volume was calculated as […] (length×width^2)/6.

Data set [2] concerns FGFR1 in H520 cells (phospho-ERK1/2). Description: Drug washout Western blot assay, H520 cells. As to conditions: H520; for phospho-ERK1/2 after extensive drug washout: 30 min, washout prior to FGF-stimulation. In kind it is cell-based. Background: In western blotting, separated proteins are transferred to a membrane and probed.
The test system of data set [3] is FGFR2 in SUM52 cells (phospho-ERK1/2). Description: Drug washout Western blot assay, SUM52 cells. In kind it is cell-based. As to conditions: SUM52, 30 min, washout prior to FGF-stimulation. As for the experimental part: Cells were seeded on the day prior to drug treatment (1 million cells/well; 6-well plate).
Drug stocks were prepared in media using 1 mM or 10 mM DMSO stock solutions. Media was aspirated from each well and replaced with 2 ml of drug-free media for control wells or 2 ml of diluted drug for treated wells. Cells were exposed to drug for 30 min. Recombinant FGF (50 ng/well) was added to each well 15 minutes prior to the end of the drug exposure and protein was extracted as below.
Cells were exposed to drug for 30 min as above. Media was aspirated and each well was washed with 5 ml drug-free media. The wash media was aspirated and replaced with 2 ml drug-free media and cells incubated for a further 30 minutes, after which the wash protocol was repeated. Cells were incubated for a further 90 minutes in drug-free media. Recombinant FGF (50 ng/well) was added to each well 15 minutes prior to the end of the drug-free incubation and protein was extracted as below.
Cell lysates were prepared in 250 μL of RIPA lysis buffer containing protease inhibitor (1:100). After incubation on ice (30 min) and centrifugation (13,000 rpm, 5 min, 4° C.) the supernatants containing the proteins were stored (−20° C.) until required. Bicinchoninic acid (BCA) assay was used to determine the protein concentration of individual cell lysate samples.

Data set [4] concerns FGFR2-amplified SUM52 breast cancer cells. Description: Cell proliferation assay (SRB). In kind it is cell-based.
Data set [5] concerns FGFR3-amplified SW780 bladder cancer cells. Description: Cell proliferation assay (SRB).
Data set [6] concerns FGFR3 in SW780 cells (phospho-ERK1/2). Description: Drug washout Western blot assay, SW780 cells. In kind it is cell-based. The conditions noted are these: SW780, 30 min; for inhibition of phosphorylation of ERK1/2, no washout: then FGF-stimulation; for phospho-ERK1/2 after extensive drug washout: washout prior to FGF-stimulation.
A further data set addresses T1, FGFR4 (Homo sapiens, UniProt P22455).
T1 construct: purchased Invitrogen
Description: Isolated enzyme FRET-based Z-Lyte kinase inhibition assay. In kind it is biochemical. As to conditions: means from 3 independent experiments; read-out: Isolate Enzyme Inhibition IC50, FGFR4. How it is done:
(§1) FGFR1-4 and the Z-Lyte Kinase Assay Kit were purchased from Invitrogen. The concentration gradients from 5.1×10^−11 to 1.0×10^−6 mol/L were used for all the test compounds. The experiments were performed according to the instructions of the manufacturer.
(§2) FGFR1-4 isolated enzyme activity was determined using the FRET-based Z-Lyte kinase inhibition assay. The data are the means from 3 independent experiments.

For a further data set, the target named is T2, FGFR3 (Homo sapiens, UniProt P22607).
T2 construct: purchased Invitrogen
T2 sequence (P22607 23-806): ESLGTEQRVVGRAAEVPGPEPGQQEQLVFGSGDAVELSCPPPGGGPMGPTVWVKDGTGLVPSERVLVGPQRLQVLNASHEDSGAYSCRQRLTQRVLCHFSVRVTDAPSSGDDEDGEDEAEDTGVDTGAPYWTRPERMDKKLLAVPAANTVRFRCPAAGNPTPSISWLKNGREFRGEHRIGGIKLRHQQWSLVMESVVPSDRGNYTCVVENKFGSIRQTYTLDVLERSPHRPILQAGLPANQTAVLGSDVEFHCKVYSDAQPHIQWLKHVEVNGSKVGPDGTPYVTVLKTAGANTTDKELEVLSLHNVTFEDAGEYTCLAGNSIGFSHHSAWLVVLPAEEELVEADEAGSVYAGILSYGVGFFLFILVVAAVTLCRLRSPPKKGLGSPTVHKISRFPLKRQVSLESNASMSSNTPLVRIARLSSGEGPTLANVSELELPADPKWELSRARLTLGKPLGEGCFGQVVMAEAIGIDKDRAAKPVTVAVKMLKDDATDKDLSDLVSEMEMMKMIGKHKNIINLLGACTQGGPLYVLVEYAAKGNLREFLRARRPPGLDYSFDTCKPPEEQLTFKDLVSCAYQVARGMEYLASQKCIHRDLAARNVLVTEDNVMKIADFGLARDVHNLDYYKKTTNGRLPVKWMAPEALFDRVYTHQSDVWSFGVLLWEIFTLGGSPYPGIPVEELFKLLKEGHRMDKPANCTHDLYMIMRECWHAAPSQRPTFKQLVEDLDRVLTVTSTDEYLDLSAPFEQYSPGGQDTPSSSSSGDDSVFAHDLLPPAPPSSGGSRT
The data set is described as above. In kind it is biochemical. As to conditions: means from 3 independent experiments; read-out: Isolate Enzyme Inhibition IC50, FGFR3. How it is done: as §1, §2

Data set [7] relates to FGFR4-amplified Hep3B hepatocellular carcinoma cells. Description: Cell proliferation assay (SRB). In kind it is cell-based. As to conditions: read-out: Cellular Anti-proliferative IC50, Hep3B.
In a further data set the target is T3, FGFR2 (Homo sapiens, UniProt P21802).
T3 construct: purchased Invitrogen
T3 sequence (P21802 22-821): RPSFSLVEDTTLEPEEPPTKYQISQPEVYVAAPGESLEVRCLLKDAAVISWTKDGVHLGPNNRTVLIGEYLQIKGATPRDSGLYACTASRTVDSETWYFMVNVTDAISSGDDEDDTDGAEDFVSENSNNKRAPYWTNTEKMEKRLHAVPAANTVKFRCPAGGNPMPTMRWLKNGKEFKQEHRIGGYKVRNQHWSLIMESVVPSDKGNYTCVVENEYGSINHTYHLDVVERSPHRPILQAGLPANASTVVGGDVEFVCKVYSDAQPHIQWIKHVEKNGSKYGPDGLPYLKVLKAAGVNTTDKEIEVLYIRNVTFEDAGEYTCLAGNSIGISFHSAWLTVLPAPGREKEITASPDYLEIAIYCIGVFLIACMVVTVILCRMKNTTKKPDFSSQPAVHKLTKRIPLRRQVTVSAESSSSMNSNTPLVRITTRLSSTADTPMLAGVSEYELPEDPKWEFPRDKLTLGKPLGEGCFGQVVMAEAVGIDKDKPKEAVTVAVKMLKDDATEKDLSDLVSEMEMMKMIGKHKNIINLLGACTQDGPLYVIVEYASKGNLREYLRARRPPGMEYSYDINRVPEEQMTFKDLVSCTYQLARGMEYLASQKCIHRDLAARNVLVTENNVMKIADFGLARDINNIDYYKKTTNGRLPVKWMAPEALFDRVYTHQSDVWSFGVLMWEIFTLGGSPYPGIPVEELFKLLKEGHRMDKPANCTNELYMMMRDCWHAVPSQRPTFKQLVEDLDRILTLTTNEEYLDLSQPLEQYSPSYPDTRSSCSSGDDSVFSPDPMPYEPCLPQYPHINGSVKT
Description: Isolated enzyme FRET-based Z-Lyte kinase inhibition assay. In kind it is biochemical. The conditions noted are these: means from 3 independent experiments; read-out: Isolate Enzyme Inhibition IC50, FGFR2. As for the experimental part:
as §1, §2

Setting [8] is: read-out: Cellular Anti-proliferative IC50, H520, Oxic, oxic conditions.
[9] abbreviates: read-out: Cellular Anti-proliferative IC50, SUM52, Anoxic, 4 hours of anoxia, remainder of assay oxic.
The mark [10] stands for this setting: read-out: Cellular Anti-proliferative IC50, SUM52, Oxic, oxic conditions.
The mark [11] stands for this setting: read-out: Cellular Anti-proliferative IC50, H520, Anoxic, 4 hours of anoxia, remainder of assay oxic.
The mark [12] stands for this setting: read-out: Cellular Anti-proliferative IC50, SUM52, 5 days drug exposure.
The mark [13] stands for this setting: read-out: Cellular Anti-proliferative IC50, SW780, 5 days drug exposure.

pIC50: −log10 of the molar value. “And” between values parts separate entries of the source, which are not always exact repeats. Equal values may be shown once. Read-outs that look alike come from different tables or passages of the source.

A word on the pIC50: it is the negative decadic logarithm of the IC50, by convention in mol/L.

T1 sequence (P22455 22-802): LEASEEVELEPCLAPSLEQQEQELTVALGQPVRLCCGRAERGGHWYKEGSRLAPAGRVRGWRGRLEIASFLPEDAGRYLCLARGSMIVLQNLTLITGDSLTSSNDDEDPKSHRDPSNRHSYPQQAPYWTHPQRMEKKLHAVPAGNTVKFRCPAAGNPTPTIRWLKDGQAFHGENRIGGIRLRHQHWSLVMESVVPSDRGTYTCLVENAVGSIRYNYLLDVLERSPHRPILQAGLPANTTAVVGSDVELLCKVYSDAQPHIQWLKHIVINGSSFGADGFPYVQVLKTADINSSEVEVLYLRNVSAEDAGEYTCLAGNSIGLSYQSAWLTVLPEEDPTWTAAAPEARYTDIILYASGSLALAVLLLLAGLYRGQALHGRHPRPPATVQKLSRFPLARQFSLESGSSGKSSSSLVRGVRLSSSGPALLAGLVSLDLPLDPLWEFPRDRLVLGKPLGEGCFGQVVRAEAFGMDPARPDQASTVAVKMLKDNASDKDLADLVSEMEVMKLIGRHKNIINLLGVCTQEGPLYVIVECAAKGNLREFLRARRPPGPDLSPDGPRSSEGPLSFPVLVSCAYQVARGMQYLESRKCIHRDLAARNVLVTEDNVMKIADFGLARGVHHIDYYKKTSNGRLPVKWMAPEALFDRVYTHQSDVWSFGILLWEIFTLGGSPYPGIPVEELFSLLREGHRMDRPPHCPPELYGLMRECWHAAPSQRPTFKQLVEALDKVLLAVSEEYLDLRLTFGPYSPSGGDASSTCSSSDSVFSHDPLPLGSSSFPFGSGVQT

With `CNc1ncc2cc(-c3c(Cl)c(OC)cc(OC)c3Cl)c(=O)n(C3CCN(C(=O)/C=C/C[N+](C)(C)Cc4c([N+](=O)[O-])ncn4C)CC3)c2n1.[Br-]` [Compound 208, (E)-4-(4-(6-(2,6-dichloro-3,5-dimethoxyphenyl)-2-(methylamino)-7-oxopyrido[2,3-d]pyrimidin-8(7H)-yl)piperidin-1-yl)-N,N-dimethyl-N-((1-methyl-4-nitro-1H-imidazol-5-yl)methyl)-4-oxobut-2-en-1-aminium bromide], the pIC50 in the data set on H520 cells (setting [8]) is 5.38; with SW780 cells it was 5.59; with SUM52 cells (setting [9]) it was 8.52; with SUM52 cells (setting [10]), 7.89. Moreover, in the data set with SUM52 cells, the “Hypoxic Cytotoxicity Ratio (HCR), SUM52” value is listed as 5. In addition, the “anti-tumour activity (median tumour growth delay)” value (“anti-tumour activity” below) in data set [1] is given as “significant anti-tumour activity”. The “time for tumours to reach 4 times relative tumour volume (RTV4)” value in data set [1] (control 12 days) is about 24 days.

Turning to `CCN(CC)CCCCNc1ncc2cc(-c3cc(OC)cc(OC)c3)c(NC(=O)NC(C)(C)C)nc2n1` [PD173074, reference compound], the “phospho-ERK1/2 after extensive drug washout” value in data set [2] (100 nM), in data set [2] (1000 nM), in [3] (100 nM), in [3] (1000 nM), in data set [6] (100 nM) and in data set [6] (1000 nM) was “restoration” each time. Further, in [2] (2 hours exposure, 100, 300 and 600 nM, with and without washout), the “reversible or irreversible inhibition of FGFR1 in cells” value is recorded as “potent reversible inhibitor”. Further, the “concentration required to suppress FGFR1 signalling through phospho-ERK1/2” value in [2] (2 hours exposure, tested at 100, 300 and 600 nM) is reported as at most 100 nM. Also, the negative-log IC50 (pIC50) in data set [4] (SUM52, 120 h, read-out: Cellular Anti-proliferative IC50, SUM52, 5 days drug exposure) is 7.92; in data set [5] (Homo sapiens, SW780, 120 h, read-out: Cellular Anti-proliferative IC50, SW780, 5 days drug exposure), 7.08. For the same compound, the “inhibition of phosphorylation of ERK1/2, no washout” value in [6] (100 nM) was “less effective”; in [6] (1000 nM), “complete inhibition”.

For `COc1cc(OC)c(Cl)c(-c2cc3cnc(Nc4ccccc4)nc3n(C3CCN(C(=O)/C=C/C[N+](C)(C)Cc4c([N+](=O)[O-])ncn4C)CC3)c2=O)c1Cl.[Br-]` [Compound 211, (E)-4-(4-(6-(2,6-dichloro-3,5-dimethoxyphenyl)-7-oxo-2-(phenylamino)pyrido[2,3-d]pyrimidin-8(7H)-yl)piperidin-1-yl)-N,N-dimethyl-N-((1-methyl-4-nitro-1H-imidazol-5-yl)methyl)-4-oxobut-2-en-1-aminium bromide], the “Hypoxic Cytotoxicity Ratio (HCR), H520” value in the data set on H520 cells is given as 20. Besides, the pIC50 in the data set with H520 cells (setting [11]) was 7.39; in the data set on H520 cells (setting [8]), 6.09; in the data set with SW780 cells, 6.12; with SUM52 cells (setting [9]), 7.92; with SUM52 cells (setting [10]), 6.70. Besides, in the data set on SUM52 cells, the “Hypoxic Cytotoxicity Ratio (HCR), SUM52” value is on record as 16. Further, in data set [1], the “anti-tumour activity” value was “significant anti-tumour activity”.

`COc1cc(Nc2ncc3c(n2)N(C2CCN(C(=O)/C=C/CN(C)C)CC2)C(=O)N(c2c(Cl)c(OC)cc(OC)c2Cl)C3)ccc1F` [Compound 118, (E)-3-(2,6-dichloro-3,5-dimethoxyphenyl)-1-(1-(4-(dimethylamino)but-2-enoyl)piperidin-4-yl)-7-((4-fluoro-3-methoxyphenyl)amino)-3,4-dihydropyrimido[4,5-d] pyrimidin-2(1H)-one]: the negative logarithm of the IC50 (pIC50) at FGFR4 is > 7.00 and 8.02; at FGFR3, 8.62.

Take `CNc1ncc2c(n1)N([C@H]1CCCN(C(=O)/C=C/CN(C)C)C1)C(=O)N(c1c(Cl)c(OC)cc(OC)c1Cl)C2` [Compound 100, (S,E)-3-(2,6-dichloro-3,5-dimethoxyphenyl)-1-(1-(4-(dimethylamino)but-2-enoyl)piperidin-3-yl)-7-(methylamino)-3,4-dihydropyrimido[4,5-d]pyrimidin-2(1H)-one]: the pIC50 was 8.48 in data set [4] (setting [12]); 6.61 in data set [7] (Homo sapiens, Hep3B); 7.55 in [5] (setting [13]).

For `CNc1ncc2c(n1)N(CCCNC(=O)/C=C/CN(C)C)C(=O)N(c1c(Cl)c(OC)cc(OC)c1Cl)C2` [Compound 125, (E)-N-(3-(3-(2,6-dichloro-3,5-dimethoxyphenyl)-7-(methylamino)-2-oxo-3,4-dihydropyrimido[4,5-d]pyrimidin-1(2H)-yl)propyl)-4-(dimethylamino)but-2-enamide], the negative logarithm of the IC50 (pIC50) at FGFR4 is under 6.00; on FGFR2, 8.19; at FGFR3 it was 7.29.

Turning to `CNc1ncc2c(n1)N([C@H]1CCCN(C(=O)/C=C/CN(C)C)C1)C(=O)N(c1c(Cl)c(OC)cc(OC)c1Cl)C2` [Compound 101, (S,E)-3-(2,6-dichloro-3,5-dimethoxyphenyl)-1-(1-(4-(dimethylamino)but-2-enoyl)piperidin-3-yl)-7-(methylamino)-3,4-dihydropyrimido[4,5-d]pyrimidin-2(1H)-one], the pIC50 in data set [4] (setting [12]) was 8.05; in [7] it was 6.79; in data set [5] (setting [13]), 7.23; on FGFR4, over 7.00.

In the case of `COc1cc(OC)c(Cl)c(-c2cc3cnc(NC(C)C)nc3n(C3CCN(C(=O)/C=C/C[N+](C)(C)Cc4c([N+](=O)[O-])ncn4C)CC3)c2=O)c1Cl.[Br-]` [Compound 209, (E)-4-(4-(6-(2,6-dichloro-3,5-dimethoxyphenyl)-2-(isopropylamino)-7-oxopyrido[2,3-d]pyrimidin-8(7H)-yl)piperidin-1-yl)-N,N-dimethyl-N-((1-methyl-4-nitro-1H-imidazol-5-yl)methyl)-4-oxobut-2-en-1-aminium bromide], in the data set on H520 cells, the “Hypoxic Cytotoxicity Ratio (HCR), H520” value amounted to 36. The pIC50 in the data set on H520 cells (setting [11]) was 7.39; in the data set on H520 cells (setting [8]), 5.83; with SW780 cells, 5.80; with SUM52 cells (setting [9]) it was 8.40; with SUM52 cells (setting [10]) it was 6.57. Besides, the “Hypoxic Cytotoxicity Ratio (HCR), SUM52” value in the data set on SUM52 cells came out at 68. In data set [1], the “anti-tumour activity” value is on record as “significant anti-tumour activity”.

As for `COc1cc(OC)c(Cl)c(-c2cc3cnc(NC(C)C)nc3n(Cc3cccc(NC(=O)/C=C/C[N+](C)(C)Cc4c([N+](=O)[O-])ncn4C)c3)c2=O)c1Cl.[Br-]` [Compound 213, (E)-4-((3-((6-(2,6-dichloro-3,5-dimethoxyphenyl)-2-(isopropylamino)-7-oxopyrido[2,3-d]pyrimidin-8(7H)-yl)methyl)phenyl)amino)-N,N-dimethyl-N-((1-methyl-4-nitro-1H-imidazol-5-yl)methyl)-4-oxobut-2-en-1-aminium bromide], the “Hypoxic Cytotoxicity Ratio (HCR), SUM52” value in the data set with SUM52 cells was found to be 5. The negative-log IC50 (pIC50) is 8.15 in the data set with SUM52 cells (setting [9]) and 7.40 with SUM52 cells (setting [10]). In addition, the “anti-tumour activity” value in data set [1] is reported as “significant anti-tumour activity”.
